We go through 4 compounds from article PMC10917775, “Endogenous stimuli-responsive separating microneedles to inhibit hypertrophic scar through remodeling the pathological microenvironment” (Nature Communications, 2024).

As a reminder, the cell viability is a read-out of living cells in per cent, often relative to untreated cells. Higher therefore signals less harm to the cells. A word on the half-life: it is how long it takes for the measured level to halve.

Peptide text beside a SMILES is read from it. * marks the point of attachment. Acetyl(5-fluorouracil-1-yl) = O=C(Cn1cc(F)c(=O)[nH]c1=O)*; Methacryloyl = C=C(C)C(=O)*

The subject of series [1] is NIH/3T3 fibroblasts. As to the kind of experiment: CCK-8 cell viability / cytotoxicity assay. The following applies: for inhibitory effect on fibroblasts compared among 5-FuA, 5-FuA-Pep-MA and 5-FuA-Pro-Pro: all the concentrations (80, 125, 250 μM), 48 h, CCK-8, one-way ANOVA, n = 4. It is filed as cell-based.
Procedure: In vitro cell viability and cytotoxicity. The CCK-8 assays were used to detect the cytotoxicity of
5-Fu and 5-Fu derivatives towards NIH/3T3 fibroblasts. Briefly, NIH/3T3 fibroblasts were cultured
with DMEM medium (containing 10% FBS and 1% penicillin-streptomycin) at 37 °C with 5% CO2.
Then, NIH/3T3 fibroblasts were seeded in 96-well plates at a density of 5 × 10^3 cells/well and
cultured for 12 h to adhere to the bottom of the plates. Subsequently, the medium was replaced with
concentrations of 80, 125, 250 μM, respectively. The cells treated with the neat medium were taken
as the control group. After 48 h of incubation, the CCK-8 kit was added, and the absorption of each
well at 450 nm was measured with a microplate reader (Multiskan MK3, ThermoFisher Scientific,
USA) to calculate the cell viability.
Details of series [2]: method as in earlier work. To be noted: in blood circulation; ref Oncol. Lett. 2018, 15, 7175; Cancer Res. 1978, 38, 3479; Cancer Biol. Ther., 2012, 13, 1407; Cancer Chemother. Pharmacol. 2013, 71, 351; Biomater. Sci. 2017, 5, 502; cited from earlier work. From the text:
Response: Thanks for the questions. […] Corticosteroids could reduce inflammation response, promote vasoconstrictive effect, and inhibit fibroblast proliferation to treat HS.

In the next series the test system is rabbit ear HS model. Briefly: In vivo HS inhibition study, scar elevation index from H&E sections. Details: species or system rabbits (Oryctolagus cuniculus). To be noted: after the 3rd administration (once a week for 3 weeks), before treatment 3.5 in drug-loaded MNs group, untreated HS group 3.3, 5-Fu injection 120 μg per lesion, mean of n = 3. Here is the method:
We investigated therapeutic effects of separating MNs on HS model in rabbit ears. Among the 15 rabbits, three rabbits were used as the control group (normal skin, NS), and the other 12 rabbits were used to establish HS model. The rabbit ear HS model was established according to a standard method, i.e., 4 HS lesions on each ear and 96 in total. Briefly, the rabbits were anesthetized with sodium pentobarbital (30 mg/kg) and operated under sterile conditions. Then, 4 round-shaped wounds of 7 mm diameter were created on the ventral surface of each ear, which were kept away from the central auricular artery and the periauricular vein. The epidermis, dermis, and perichondrium in each wound was removed thoroughly. After the procedures, the wounds were washed with 0.1% benzalkonium chloride solution to sterilize. In the following 2 weeks, after the rabbits were anesthetized, the newly formed wound tissues were removed to accelerate the formation of HS. […]
The three rabbits without treatment were taken as the control group (group 1, NS). […] The macroscopic images were recorded on the 21st day (before administration), the 29th day (1 week after the 1st administration), the 36th day (1 week after the 2nd administration), the 43rd day (1 week after the 3rd administration) and the 50th day (1 week follow-up). […]

Series [3] has as its system NIH/3T3 fibroblasts. As to the kind of experiment: In vitro wound scratch (migration) assay. It is filed as cell-based. The following applies: 80 μM drug with 0.5% FBS, after 48 h of incubation, Image J, n = 3, control almost complete closure within 48 h.
Procedure: In vitro wound scratch assay. Wound scratch assays were used to evaluate the migration of
NIH/3T3 fibroblasts were seeded into 24-well plates at a density of 2 × 10^4 cells/well for 8 h. Then,
the sterile pipette tips were used to draw the scratch in the center of the wells, and the cells scratched
off were washed away with PBS for 3 times. 500 μL of drug solutions consisting of 80 μM of 5-
For series [4], the system named is human hypertrophic scar fibroblast (HSFb). Briefly: Intracellular ROS scavenging (ROS assay kit, DCFH-DA, CLSM). The format is cell-based. To be noted: HSFb stimulated with ROSup, 5-FuA-Pep-MA 50, 100 and 200 μM, 12 h, with increased concentration. Here is the method:
The migration of cells was imaged with an inversion microscope at 0, 24 and 48 h. The area of the scratch was analyzed by Image J, and the wound healing rate (WHR) was calculated according to the following equation: WHR (%) = (A0 − At)/A0 × 100%, where A0 and At represented the area of scratch at 0 h and t h, respectively.
Intracellular ROS scavenging. ROS assay kit was used to observe the elimination of intracellular ROS by 5-FuA-Pep-MA. Specifically, HSFbs were seeded in 8-well confocal dishes at a density of 1 × 10^4 cells/well and cultured for 12 h to adhere to the bottom of the dishes. […]
Immunohistochemical, fluorescence and immunofluorescence staining of HS tissues. The ROS levels in HS tissues were measured by the fluorescence and immunofluorescence methods on day
43rd. […] The expression of MMP2 and MMP9 in HS tissues were measured by immunohistochemistry and immunofluorescence methods on day 43rd. […]
RNA sequencing and sample collection. […] RNA integrity was assessed using the RNA Nano 6000 Assay Kit of the Bioanalyzer 2100 system (Agilent Technologies, CA, USA). PCR products were purified (AMPure XP system) and library quality was assessed on the Agilent Bioanalyzer 2100 system. […]
Quality control. Firstly, raw data (raw reads) of fastq format were processed through in-house perl scripts. […]

Series [5] is described as follows: ROS-responsive cleavage of prodrug by H2O2 (HPLC). It is filed as physicochemical. To be noted: PBS with 10, 50, 100 and 300 μM H2O2, 37 °C, 24-120 h, HPLC peak area, n = 3. From the text:
pathological microenvironment of HS tissues determined the drug release rate and […]
Indeed, the size, thickness and duration vary in patients with HS, which could affect the amount of drug needed. […]
fibroblasts/myofibroblasts and the more collagen fibers secreted. Therefore, we could adjust the frequency of treatment for different scar features (size, thickness and […]
3. Figure 3: The ROS response of 5-FuA-Pep-MA prodrug with different concentrations of H2O2 should be shown in both concentration and time.
We have revisited the relevant experiment.
Specifically, 5-FuA-Pep-MA prodrug was incubated with PBS containing different concentrations (10, 50, 100 and 300 μM) of H2O2 at 37 ℃, respectively . 50 μL solutio n was taken out at a pres et time (24, 48, 72, 96 and 120 h), which was analy zed by HPLC. […]
and concentration-dependent (Fig. 3g). […]
For the question3: As described in method:  The peak area obtained from the sample without H2O2 was recorded as A0, while the peak area obtained from the sample with H2O2 was recorded as Ac. The degradation rate was calculated by [(A0-Ac)/A0] À 100% to evaluate the ROS response of peptide prodrug […]
A direct observation of more 5-FU with more H2O2, by HPLC or other methods, either in-vitro or in-vivo, would be more convictive. For example, glucose responsive release of insulin was detected by insulin elisa kit, not the degradation of vesicles […]

In the series on NIH/3T3 fibroblasts [1] (250 μM, 48 h incubation, CCK-8, absorption at 450 nm, mean of n = 4), `O=c1[nH]cc(F)c(=O)[nH]1` [5-Fu, 5-Fluorouracil] came in with a cell viability of 46.9%. The half-life in series [2] was 10 to 20 min. Besides, the “scar elevation index (SEI)” value in the series with rabbit ear HS model is listed as 2.2.

In the case of `O=C(O)Cn1cc(F)c(=O)[nH]c1=O` [5-FuA, 5-Fuorouracil-1-acetic acid], the “inhibitory effect on fibroblasts compared among 5-FuA, 5-FuA-Pep-MA and 5-FuA-Pro-Pro” value in the series on NIH/3T3 fibroblasts [1] is reported as “no significant difference”. The compound further yielded a wound healing rate in the series on NIH/3T3 fibroblasts [3] of 48.3%.

Turning to `C=C(C)C(=O)NCCCC[C@H](NC(=O)[C@@H]1CCCN1C(=O)[C@@H]1CCCN1C(=O)[C@@H]1CCCN1C(=O)Cn1cc(F)c(=O)[nH]c1=O)C(N)=O` [5-FuA-Pep-MA] ({Acetyl(5-fluorouracil-1-yl)}-PPPK(Methacryloyl)-NH2), the “intracellular ROS fluorescence intensity” value in series [4] is “significantly reduced”. In addition, in the series with NIH/3T3 fibroblasts [1], the “inhibitory effect on fibroblasts compared among 5-FuA, 5-FuA-Pep-MA and 5-FuA-Pro-Pro” value is recorded as “no significant difference”. For the same compound, the wound healing rate with NIH/3T3 fibroblasts [3] worked out at 51.6%. Also, in series [5], the ROS-responsive cleavage rate entry is “positively correlated with H2O2 concentrations and incubation time”.

In the case of `O=C(O)[C@@H]1CCCN1C(=O)[C@@H]1CCCN1C(=O)Cn1cc(F)c(=O)[nH]c1=O` [5-FuA-Pro-Pro], in the series on NIH/3T3 fibroblasts [1], the “inhibitory effect on fibroblasts compared among 5-FuA, 5-FuA-Pep-MA and 5-FuA-Pro-Pro” value is “no significant difference”. In addition, in the series on NIH/3T3 fibroblasts [3], the wound healing rate came to 53.2%.
